From US12655142B2 (Merck Patent GmbH, priority 2019, dated 2026)

Experiments:
[1] = Determination of Efflux-Ratio (ER) in Caco-2 cells; details: human, Caco-2, pH 7.4
Protocol: Determination of Efflux-Ratio (ER) in Caco-2 Cells
The efflux ratio of the test compounds was determined in Caco-2 human epithelial colorectal adenocarcinoma cell line (TC7 clone) using calculation of apparent permeability (Papp). Cell monolayers were differentiated in vitro for 14 days before the experiment. Subsequently, the test compound (in HBSS pH 7.4 at 1 μM final concentration) was applied on the donor side while HBSS buffer (pH 7.4) was added to the receiver wells. […] The plate was then incubated in a 5% CO2 incubator (37° C., 100% humidity). At the end of the 2 hours incubation period, 50 μL sample was removed from both donor and receiver wells and diluted 1:1 with equal volumes of acetonitrile for LC-MS/MS analysis. The LC-MS/MS analysis used a one-point calibration method from a 1 μM standard solution diluted 1:1 with equal volume of acetonitrile (consistent to the test samples).
The data was used to calculate the apparent permeabilities of the compounds in both apical to basolateral (Papp,AB) and basolateral to apical (Papp,BA) directions at 1 μM concentration in duplicate. The Papp values were calculated from the concentrations in the donor and receiver compartments using the following formula:
Efflux ratio was calculated according to the following formula:

[2] = biological target: T1, GIST430/654 cell line expressing mutated constitutively active cKIT receptor tyrosine kinase (Δ560-576 deletion and V654A point mutation) (Homo sapiens, UniProt P10721, DEL560-576/V654A); experiment: Cellular cKIT autophosphorylation (phospho-Y307-cKIT, Luminex bead assay) in GIST430/654 cells; type: cell-based; details: compounds 45 min, read-out: GIST 430/654 IC50
T1 construct: endogenous in cells; host or cells: GIST430/654 cells
How it was run: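 Phospho-Y307 cKIT in lysates was measured on a Luminex bead assay, with total-cKIT capture overnight at 4 °C and phosphospecific plus PE secondary detection. Cells had 45 min exposure to a compound dilution series the day after plating: GIST430 (Δ560-576) or GIST430/654 (Δ560-576/V654A, grown with 100 nM imatinib). IC50 values are relative to 0.3% DMSO-treated cells.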

c-Kit(V654A) = biological target: T2, c-Kit(V654A) (Homo sapiens, UniProt P10721, V654A); experiment: c-Kit(V654A) assay (33P-ATP filter binding kinase assay); type: biochemical; details: recombinant human c-Kit aa 544-end V654A, ATP 200 μM
T2 construct: recombinant human c-Kit, amino acids 544-end containing the V654A mutation; GST (N)
How it was run: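 Radiometric filter-binding read-out: substrate 33P incorporation counted by scintillation after P30 filtermat washes in 75 mM phosphoric acid and methanol. Enzyme: N-GST recombinant human c-Kit aa 544-end carrying V654A.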

T2 sequence (P10721 544-976 V654A): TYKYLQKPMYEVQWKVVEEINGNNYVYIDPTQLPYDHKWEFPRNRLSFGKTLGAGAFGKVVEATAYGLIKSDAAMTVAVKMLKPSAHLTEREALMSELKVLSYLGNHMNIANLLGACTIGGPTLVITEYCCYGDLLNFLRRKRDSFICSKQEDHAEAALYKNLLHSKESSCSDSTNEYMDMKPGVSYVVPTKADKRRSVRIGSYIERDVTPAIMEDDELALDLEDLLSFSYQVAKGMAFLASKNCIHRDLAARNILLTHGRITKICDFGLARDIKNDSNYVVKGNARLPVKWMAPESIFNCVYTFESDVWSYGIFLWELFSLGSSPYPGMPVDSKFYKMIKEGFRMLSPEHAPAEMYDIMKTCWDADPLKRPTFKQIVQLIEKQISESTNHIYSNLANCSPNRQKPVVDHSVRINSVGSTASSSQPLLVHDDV
T1 sequence (P10721 with tags, fused parts or gaps DEL560-576/V654A): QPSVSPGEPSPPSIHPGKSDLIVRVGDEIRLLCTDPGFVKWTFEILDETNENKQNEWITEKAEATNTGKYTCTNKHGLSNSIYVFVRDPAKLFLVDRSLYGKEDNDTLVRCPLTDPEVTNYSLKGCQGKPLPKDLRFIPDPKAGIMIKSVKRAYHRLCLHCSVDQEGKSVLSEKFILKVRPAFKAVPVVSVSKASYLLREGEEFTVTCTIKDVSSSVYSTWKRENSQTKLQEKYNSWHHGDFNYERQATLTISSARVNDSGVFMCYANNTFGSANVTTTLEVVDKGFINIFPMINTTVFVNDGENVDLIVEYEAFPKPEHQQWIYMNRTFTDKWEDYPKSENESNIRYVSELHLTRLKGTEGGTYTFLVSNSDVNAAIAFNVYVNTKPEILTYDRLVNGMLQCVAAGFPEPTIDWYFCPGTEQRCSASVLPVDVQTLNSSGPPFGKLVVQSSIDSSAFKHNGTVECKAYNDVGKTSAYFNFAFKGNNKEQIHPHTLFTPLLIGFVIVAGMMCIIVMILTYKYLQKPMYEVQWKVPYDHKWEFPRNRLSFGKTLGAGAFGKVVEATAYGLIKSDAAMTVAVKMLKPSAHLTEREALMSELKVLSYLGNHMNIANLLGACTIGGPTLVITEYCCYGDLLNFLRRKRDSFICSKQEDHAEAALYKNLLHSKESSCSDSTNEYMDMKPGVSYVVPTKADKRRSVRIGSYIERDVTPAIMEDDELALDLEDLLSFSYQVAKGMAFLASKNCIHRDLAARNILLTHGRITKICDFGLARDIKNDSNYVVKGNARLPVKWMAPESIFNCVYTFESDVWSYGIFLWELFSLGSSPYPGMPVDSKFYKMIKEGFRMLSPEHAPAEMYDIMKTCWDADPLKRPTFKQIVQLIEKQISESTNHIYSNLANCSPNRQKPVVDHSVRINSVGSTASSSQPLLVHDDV

SMILES	efflux ratio at 2 h, 1 μM [1]	IC50 [2] [nM]	IC50 (c-Kit(V654A)) [nM]
COc1ccn2c(-c3cc(NCc4ccc(-c5cnn(CC6CC6)c5)cc4)ncn3)cnc2c1 [A21, [4-(1-cyclopropylmethyl-1H-pyrazol-4-yl)-benzyl]-[6-(7-methoxy-imidazo[1,2-a]pyridin-3-yl)-pyrimidin-4-yl]-amine]	< 15	58	4.8
Cn1cc(-c2ccc(CNc3cc(-c4cnc5cc(OCC6CNC6)ccn45)ncn3)cc2)cn1 [A167, 6-{7-[(azetidin-3-yl)methoxy]imidazo[1,2-a]pyridin-3-yl}-N-{[4-(1-methyl-1H-pyrazol-4-yl)phenyl]methyl}pyrimidin-4-amine]	> 50	500	7.5
Cn1cc(-c2ccc(CNc3cc(-c4cnc5cc(OCCN6CCC(F)(F)CC6)ccn45)ncn3)cc2)cn1 [A202, (6-{7-[2-(4,4-difluoro-piperidin-1-yl)-ethoxy]-imidazo[1,2-a]pyridin-3-yl}-pyrimidin-4-yl)-[4-(1-methyl-1H-pyrazol-4-yl)-benzyl]-amine]	< 15	200	17
COCCn1cc(-c2ccc(CNc3cc(-c4cnc5cc(OC)ccn45)ncn3)cc2)cn1 [A19, {4-[1-(2-methoxy-ethyl)-1H-pyrazol-4-yl]-benzyl}-[6-(7-methoxy-imidazo[1,2-a]pyridin-3-yl)-pyrimidin-4-yl]-amine]	< 15	71	9.4
CN1CC(COc2ccn3c(-c4cc(NCc5ccc(-c6cnn(C)c6)cc5)ncn4)cnc3c2)C1 [A144, N-{[4-(1-methyl-1H-pyrazol-4-yl)phenyl]methyl}-6-{7-[(1-methylazetidin-3-yl)methoxy]imidazo[1,2-a]pyridin-3-yl}pyrimidin-4-amine]	> 50	61	5.1
Cn1cc(-c2ccc(CNc3cc(-c4cnc5cc(OCC6CCN(CC(F)F)CC6)ccn45)ncn3)cc2)cn1 [A192, (6-{7-[1-(2,2-difluoro-ethyl)-piperidin-4-ylmethoxy]-imidazo[1,2-a]pyridin-3-yl}-pyrimidin-4-yl)-[4-(1-methyl-1H-pyrazol-4-yl)-benzyl]-amine]	< 15	67	28
Cn1ncc(-c2ccc(CNc3cc(-c4cnc5cc(OCC6CCN(CC#N)CC6)ccn45)ncn3)cc2)n1 [A189, [4-(3-{6-[4-(2-methyl-2H-[1,2,3]triazol-4-yl)-benzylamino]-pyrimidin-4-yl}-imidazo[1,2-a]pyridin-7-yloxymethyl)-piperidin-1-yl]-acetonitrile]	< 15	160	9.8
CN1CCC(Oc2ccn3c(-c4cc(NCc5ccc(-c6cnn(C)c6)cc5)ncn4)cnc3c2)CC1 [A63, {6-[7-(1-methyl-piperidin-4-yloxy)-imidazo[1,2-a]pyridin-3-yl]-pyrimidin-4-yl}-[4-(1-methyl-1H-pyrazol-4-yl)-benzyl]-amine]	< 15	84	12
Cn1cc(-c2ccc(CNc3cc(-c4cnc5cc(OCCC6CCNC6)ccn45)ncn3)cc2)cn1 (stereo not drawn) [A175, [4-(1-methyl-1H-pyrazol-4-yl)-benzyl]-{6-[7-(2-pyrrolidin-3-yl-ethoxy)-imidazo[1,2-a]pyridin-3-yl]-pyrimidin-4-yl}-amine]	> 50	480	9.8
Cn1cc(-c2ccc(CNc3cc(-c4cnc5cc(OCC6CN(C7COC7)C6)ccn45)ncn3)cc2)cn1 [A183, N-{[4-(1-methyl-1H-pyrazol-4-yl)phenyl]methyl}-6-(7-{[1-(oxetan-3-yl)azetidin-3-yl]methoxy}imidazo[1,2-a]pyridin-3-yl)pyrimidin-4-amine]	< 15	27	7.7
Cn1cc(-c2ccc(CNc3cc(-c4cnc5cc(OCCN6CCN(C7CC7)CC6)ccn45)ncn3)cc2)cn1 [A197, (6-{7-[2-(4-cyclopropyl-piperazin-1-yl)-ethoxy]-imidazo[1,2-a]pyridin-3-yl}-pyrimidin-4-yl)-[4-(1-methyl-1H-pyrazol-4-yl)-benzyl]-amine]	< 15	150	12
Cn1cc(-c2ccc(CNc3cc(-c4cnc5cc(OCCC(C)(C)N)ccn45)ncn3)cc2)cn1 [A223, {6-[7-(3-amino-3-methyl-butoxy)-imidazo[1,2-a]pyridin-3-yl]-pyrimidin-4-yl}-[4-(1-methyl-1H-pyrazol-4-yl)-benzyl]-amine]	> 50	190	11

The next lines start with the values.

efflux ratio at 2 h, 1 μM [1]	IC50 [2] [nM]	IC50 (c-Kit(V654A)) [nM]	SMILES
> 50	440	87	CC(Nc1cc(-c2cnc3cc(OCCCN4CCC4)ccn23)ncn1)c1ccc(-c2cnn(C)c2)cc1 (stereo not drawn) [A249, {6-[7-(3-azetidin-1-yl-propoxy)-imidazo[1,2-a]pyridin-3-yl]-pyrimidin-4-yl}-{1-[4-(1-methyl-1H-pyrazol-4-yl)-phenyl]-ethyl}-amine]
< 15	130	8.2	Cn1cc(-c2ccc(CNc3cc(-c4cnc5cc(OCCN6CCn7nccc7C6)ccn45)ncn3)cc2)cn1 [A216, (6-{7-[2-(6,7-dihydro-4H-pyrazolo[1,5-a]pyrazin-5-yl)-ethoxy]-imidazo[1,2-a]pyridin-3-yl}-pyrimidin-4-yl)-[4-(1-methyl-1H-pyrazol-4-yl)-benzyl]-amine]
15 to 50	99	6.5	Cn1cc(-c2ccc(CNc3cc(-c4cnc5cc(OCCS(C)(=O)=O)ccn45)ncn3)cc2)cn1 [A224, {6-[7-(2-methanesulfonyl-ethoxy)-imidazo[1,2-a]pyridin-3-yl]-pyrimidin-4-yl}-[4-(1-methyl-1H-pyrazol-4-yl)-benzyl]-amine]
15 to 50	250	15	Cn1ncc(-c2ccc(CNc3cc(-c4cnc5cc(OCCCS(C)(=O)=O)ccn45)ncn3)cc2)n1 [A231, {6-[7-(3-methanesulfonyl-propoxy)-imidazo[1,2-a]pyridin-3-yl]-pyrimidin-4-yl}-[4-(2-methyl-2H-[1,2,3]triazol-4-yl)-benzyl]-amine]
> 50	160	21	CN1CC2(CN(CCOc3ccn4c(-c5cc(NCc6ccc(-c7cnn(C)c7)cc6)ncn5)cnc4c3)C2)OC1=O [A248, 7-methyl-2-[2-(3-{6-[4-(1-methyl-1H-pyrazol-4-yl)-benzylamino]-pyrimidin-4-yl}-imidazo[1,2-a]pyridin-7-yloxy)-ethyl]-5-oxa-2,7-diaza-spiro[3.4]octan-6-one]
< 15	63	24	Cn1cc(-c2ccc(CNc3cc(-c4cnc5cc(N6CCN(C7COC7)CC6)ccn45)ncn3)cc2)cn1 [A230, [4-(1-methyl-1H-pyrazol-4-yl)-benzyl]-{6-[7-(4-oxetan-3-yl-piperazin-1-yl)-imidazo[1,2-a]pyridin-3-yl]-pyrimidin-4-yl}-amine]
> 50	420	9.8	Cn1cc(-c2ccc(CNc3cc(-c4cnc5cc(OCCN6CCn7cnnc7C6)ccn45)ncn3)cc2)cn1 [A203, (6-{7-[2-(5,6-dihydro-8H-[1,2,4]triazolo[4,3-a]pyrazin-7-yl)-ethoxy]-imidazo[1,2-a]pyridin-3-yl}-pyrimidin-4-yl)-[4-(1-methyl-1H-pyrazol-4-yl)-benzyl]-amine]
< 15	44	2	OCCOc1ccn2c(-c3cc(NCc4ccc(-c5cocn5)cc4)ncn3)cnc2c1 [A251, 2-{3-[6-(4-oxazol-4-yl-benzylamino)-pyrimidin-4-yl]-imidazo[1,2-a]pyridin-7-yloxy}-ethanol]
< 15	100	7.1	Cn1cc(-c2ccc(CNc3cc(-c4cnc5cc(OCCN6CC(C)(C#N)C6)ccn45)ncn3)cc2)cn1 [A206]
< 15	230	38	CN(CCOc1ccn2c(-c3cc(NCc4ccc(-c5cnn(C)c5)cc4)ncn3)cnc2c1)CC(F)(F)F [A208, [4-(1-methyl-1H-pyrazol-4-yl)-benzyl]-[6-(7-{2-[methyl-(2,2,2-trifluoro-ethyl)-amino]-ethoxy}-imidazo[1,2-a]pyridin-3-yl)-pyrimidin-4-yl]-amine]
> 50	120	10	Cn1cc(-c2ccc(CNc3cc(-c4cnc5cc(OCCN6CC(S(C)(=O)=O)C6)ccn45)ncn3)cc2)cn1 [A215, (6-{7-[2-(3-methanesulfonyl-azetidin-1-yl)-ethoxy]-imidazo[1,2-a]pyridin-3-yl}-pyrimidin-4-yl)-[4-(1-methyl-1H-pyrazol-4-yl)-benzyl]-amine]
> 50	410	110	CC(Nc1cc(-c2cnc3cc(OCCCN4CCCC4)ccn23)ncn1)c1ccc(-c2cnn(C)c2)cc1 (stereo not drawn) [A250, {1-[4-(1-methyl-1H-pyrazol-4-yl)-phenyl]-ethyl}-{6-[7-(3-pyrrolidin-1-yl-propoxy)-imidazo[1,2-a]pyridin-3-yl]-pyrimidin-4-yl}-amine]
